This note sets out measurements from PubChem BioAssay AID1845211 (Molecular Pharmacology Branch, DTP, NCI, 2023).

In general, IC50 refers to the midpoint of a concentration-inhibition curve. What is called viability, T/C is the result in the treated group divided by that in the control group, in per cent.

“And” between values parts separate entries of the source, which are not always exact repeats. Equal values may be shown once.

The subject of this assay is NCI-H322M multicellular tumor spheroids, viability (% test/control). Put plainly: Anticancer human tumor NCI-H322M cell line growth inhibition.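 On viability, T/C: spheroids exposed to compound for seven days before readout; 100% = DMSO vehicle control wells.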 The settings on record: for viability, T/C: stronger effect = lower value. A digest of the protocol:
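Single agents and combinations were tested on spheroids built from tumor cells plus HUVEC and hMSC, at half-log dilutions starting at or near clinical Cmax, else 10 microM; final DMSO 0.25% (v/v).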

[1] abbreviates: curve of first compound, second compound 0.003 µM.
Where [2] appears, read: curve of first compound, second compound 30 pM.
[3] abbreviates: curve of first compound, second compound 94.9 pM.
[4] abbreviates: curve of first compound, second compound 0.0003 µM.
[5] abbreviates: curve of first compound, second compound 0.000949 µM.
Setting [6] is: second compound 30 pM, first compound 0.0949 µM.
The mark [7] stands for this setting: second compound 30 pM, first compound 0.3 µM.
[8] abbreviates: second compound 30 pM, first compound 0.949 µM.
The mark [9] stands for this setting: second compound 30 pM, first compound 3 µM.
[10] abbreviates: second compound 94.9 pM, first compound 0.0949 µM.
The mark [11] stands for this setting: second compound 94.9 pM, first compound 0.3 µM.
[12] abbreviates: second compound 94.9 pM, first compound 0.949 µM.
Setting [13] is: second compound 94.9 pM, first compound 3 µM.
Where [14] appears, read: second compound 0.0003 µM, first compound 0.0949 µM.
Where [15] appears, read: second compound 0.0003 µM, first compound 0.3 µM.
[16] abbreviates: second compound 0.0003 µM, first compound 0.949 µM.
[17] abbreviates: second compound 0.0003 µM, first compound 3 µM.
Where [18] appears, read: second compound 0.000949 µM, first compound 0.0949 µM.
Where [19] appears, read: second compound 0.000949 µM, first compound 0.3 µM.
[20] abbreviates: second compound 0.000949 µM, first compound 0.949 µM.
Setting [21] is: second compound 0.000949 µM, first compound 3 µM.
Where [22] appears, read: second compound 0.003 µM, first compound 0.0949 µM.
The mark [23] stands for this setting: second compound 0.003 µM, first compound 0.3 µM.
Where [24] appears, read: second compound 0.003 µM, first compound 0.949 µM.
The mark [25] stands for this setting: second compound 0.003 µM, first compound 3 µM.

As to `CC1COCCN1c1cc(-c2ccnn2C)c2ccnc(-c3ccn[nH]3)c2n1` (stereo unspecified) + CC[C@@]1(O)C(=O)OCc2c1cc1n(c2=O)Cc2cc3c(CN(C)C)c(O)ccc3nc2-1, the half-maximal inhibitory concentration (IC50) is, setting by setting: under setting [1], under 0.0316 µM; (curve of first compound, second compound 0.00949 µM) under 0.0316 µM; (curve of first compound, second compound 0.03 µM) under 0.0316 µM; (curve of first compound, second compound 0.0949 µM) under 0.0316 µM; (curve of first compound, second compound 0.3 µM) under 0.0316 µM. Further, the viability, T/C is, setting by setting: (second compound 0.003 µM, first compound 0.0316 µM) 55.8%; (second compound 0.003 µM, first compound 0.1 µM) 40.6%; (second compound 0.003 µM, first compound 0.316 µM) 35%; (second compound 0.003 µM, first compound 1 µM) 32.3%; (second compound 0.003 µM, first compound 3.16 µM) 30.8%; (second compound 0.003 µM, first compound 10 µM) 38.3%. Also, the viability, T/C (second compound 0.00949 µM, first compound 0.0316 µM) is 51.6%; the viability, T/C (second compound 0.00949 µM, first compound 0.1 µM) was 39.1%; the viability, T/C (second compound 0.00949 µM, first compound 0.316 µM) was 35.5%; the viability, T/C (second compound 0.00949 µM, first compound 1 µM) was 32.6%; the viability, T/C (second compound 0.00949 µM, first compound 3.16 µM) was 32.9%; the viability, T/C (second compound 0.00949 µM, first compound 10 µM) was 34.5%. Further, the viability, T/C was 43.8% (second compound 0.03 µM, first compound 0.0316 µM); 32.6% (second compound 0.03 µM, first compound 0.1 µM); 30.8% (second compound 0.03 µM, first compound 0.316 µM); 30.4% (second compound 0.03 µM, first compound 1 µM); 32.1% (second compound 0.03 µM, first compound 3.16 µM); 35.9% (second compound 0.03 µM, first compound 10 µM). For the same compound, the viability, T/C is, setting by setting: (second compound 0.0949 µM, first compound 0.0316 µM) 33.6%; (second compound 0.0949 µM, first compound 0.1 µM) 28.1%; (second compound 0.0949 µM, first compound 0.316 µM) 26.6%; (second compound 0.0949 µM, first compound 1 µM) 26.9%; (second compound 0.0949 µM, first compound 3.16 µM) 28.1%; (second compound 0.0949 µM, first compound 10 µM) 29.9%. The viability, T/C is, setting by setting: (second compound 0.3 µM, first compound 0.0316 µM) 23.1%; (second compound 0.3 µM, first compound 0.1 µM) 18.9%; (second compound 0.3 µM, first compound 0.316 µM) 19.8%; (second compound 0.3 µM, first compound 1 µM) 23.6%; (second compound 0.3 µM, first compound 3.16 µM) 20.1%; (second compound 0.3 µM, first compound 10 µM) 27.7%.

As for `Cc1cc(C)c(CNC(=O)c2cc(-c3ccc(CN4CCOCC4)cc3)cc3c2cnn3C2CCCC2)c(=O)[nH]1`, the viability, T/C was 93.2% and 96.5% and 81.3% (compound 0.0316 µM); 101% and 84.8% and 89% (compound 0.1 µM); 90.7% and 96.1% and 79.9% (compound 0.316 µM); 101% and 88.8% and 98.1% (compound 1 µM); 96.1% and 117% and 84.2% (compound 3.16 µM); 117% and 114% and 102% (compound 10 µM). Under “curve of compound”, the half-maximal inhibitory concentration (IC50) is over 10 µM.

For the compound `CNCc1ccc(-c2cc(-c3nc(-c4ccc(S(=O)(=O)C(C)C)cc4)cnc3N)on2)cc1` + COc1cc2c(cc1O)CCNC21CSC2c3c(OC(C)=O)c(C)c4c(c3C(COC1=O)N1C(O)C3Cc5cc(C)c(OC)c(O)c5C(C21)N3C)OCO4, the IC50 was over 3 µM under setting [2]; over 3 µM under setting [3]; over 3 µM under setting [4]; 0.479 µM under setting [5]; under 0.00949 µM under setting [1]. For the same compound, the viability, T/C reads like this: (second compound 30 pM, first compound 0.00949 µM) 98.7%; (second compound 30 pM, first compound 0.03 µM) 102%; under setting [6], 82.5%; under setting [7], 76.4%; under setting [8], 69.5%; under setting [9], 70%. The viability, T/C runs as follows: (second compound 94.9 pM, first compound 0.00949 µM) 95.5%; (second compound 94.9 pM, first compound 0.03 µM) 80.2%; under setting [10], 85.6%; under setting [11], 73.4%; under setting [12], 66.4%; under setting [13], 66.1%. Further, the viability, T/C reads like this: (second compound 0.0003 µM, first compound 0.00949 µM) 85.7%; (second compound 0.0003 µM, first compound 0.03 µM) 85.8%; under setting [14], 77.8%; under setting [15], 60.5%; under setting [16], 59.4%; under setting [17], 59.2%. Also, the viability, T/C (second compound 0.000949 µM, first compound 0.00949 µM) is 81.9%; the viability, T/C (second compound 0.000949 µM, first compound 0.03 µM) is 76.9%; the viability, T/C under setting [18] is 71.4%; the viability, T/C under setting [19] was 51.9%; the viability, T/C under setting [20] was 47.3%; the viability, T/C under setting [21] is 44.4%. The viability, T/C is 9.27% (second compound 0.003 µM, first compound 0.00949 µM); 10.9% (second compound 0.003 µM, first compound 0.03 µM); 10.1% under setting [22]; 9.72% under setting [23]; 12.4% under setting [24]; 7.67% under setting [25].

`CNCc1ccc(-c2cc(-c3nc(-c4ccc(S(=O)(=O)C(C)C)cc4)cnc3N)on2)cc1`: the viability, T/C was 101% and 98.9% and 108% (compound 0.00949 µM); 92% and 104% and 77.6% (compound 0.03 µM); 86.2% and 90.6% and 82.5% (compound 0.0949 µM); 75.3% and 82.6% and 88.2% (compound 0.3 µM); 93% and 95.4% and 77.4% (compound 0.949 µM); 90.5% and 94.3% and 74.9% (compound 3 µM). Moreover, the IC50 (curve of compound) was over 3 µM.

On to `CC(C)n1c(=O)n(C)c2cnc3cc(F)c(-c4ccc(OCCCN5CCCCC5)nc4)cc3c21`, for which the viability, T/C is, setting by setting: (compound 0.0316 µM) 60.1% and 96% and 88.1%; (compound 0.1 µM) 80.2% and 82.2% and 112%; (compound 0.316 µM) 70.4% and 78.7% and 83.2%; (compound 1 µM) 73.2% and 102% and 112%; (compound 3.16 µM) 76.8% and 85.2% and 87.2%; (compound 10 µM) 56.8% and 79.3% and 85%. The IC50 (curve of compound) is over 10 µM.

For `O=C(c1cc(Cc2n[nH]c(=O)c3ccccc23)ccc1F)N1CCN(C(=O)C2CC2)CC1` + COc1cc2c(cc1O)CCNC21CSC2c3c(OC(C)=O)c(C)c4c(c3C(COC1=O)N1C(O)C3Cc5cc(C)c(OC)c(O)c5C(C21)N3C)OCO4, the IC50 under setting [2] is over 30 µM; the IC50 under setting [3] is over 30 µM; the half-inhibitory concentration (IC50) under setting [4] was over 30 µM; the 50% inhibitory concentration (IC50) under setting [5] was determined as 20.8 µM; the IC50 under setting [1] is under 0.0949 µM. Also, the viability, T/C is 81.3% under setting [6]; 84.3% under setting [7]; 90.6% under setting [8]; 79.8% under setting [9]; 85.8% (second compound 30 pM, first compound 9.49 µM); 110% (second compound 30 pM, first compound 30 µM). Further, the viability, T/C reads like this: under setting [10], 90.7%; under setting [11], 84.9%; under setting [12], 88.5%; under setting [13], 87.5%; (second compound 94.9 pM, first compound 9.49 µM) 79.4%; (second compound 94.9 pM, first compound 30 µM) 98.5%. Further, the viability, T/C under setting [14] was 99.6%; the viability, T/C under setting [15] was 84.7%; the viability, T/C under setting [16] was 79.9%; the viability, T/C under setting [17] was 83.3%; the viability, T/C (second compound 0.0003 µM, first compound 9.49 µM) is 79.8%; the viability, T/C (second compound 0.0003 µM, first compound 30 µM) was 95.9%. Also, the viability, T/C was 83.4% under setting [18]; 77.7% under setting [19]; 69.5% under setting [20]; 72.7% under setting [21]; 67.6% (second compound 0.000949 µM, first compound 9.49 µM); 42.2% (second compound 0.000949 µM, first compound 30 µM). In addition, the viability, T/C under setting [22] was 11.3%; the viability, T/C under setting [23] is 14.1%; the viability, T/C under setting [24] is 8.06%; the viability, T/C under setting [25] is 7.88%; the viability, T/C (second compound 0.003 µM, first compound 9.49 µM) is 4.62%; the viability, T/C (second compound 0.003 µM, first compound 30 µM) was 1.81%.
